For experiment [1], the system named is Phytophthora infestans. Briefly: whole plant or invertebrate. It is filed as in vivo. The settings on record: Late blight on tomato; control value class.
In experiment [2] the test system is Alternaia brassicicola. The experiment can be described thus: Test Example C: Alternaria sooty spot on cabbage. It is filed as in vivo. The settings on record: Alternaria sooty spot on cabbage; control value class. An excerpt:
Seeds of a test plant (cabbage variety: Shikidori) were planted and cultivated until the cotyledons extended.
<Control Value> Control value=100{1−(n/3)}

The subject of experiment [3] is Plasmopara viticola. Briefly: Test Example G: Downy mildew on vine. Conditions: Downy mildew on vine; 250 ppm spray, 7 to 10 days after inoculation.
The subject of experiment [4] is Puccinia recondita. Briefly: Test Example E: Brown rust on wheat. The settings on record: Brown rust on wheat; control value class. In kind it is in vivo.
The test system of experiment [5] is Botrytis cinerea. Briefly: Test Example B: Gray mold on tomato. The settings on record: Gray mold on tomato; control value class.
The subject of experiment [6] is Colletotrichum orbiculare. The experiment can be described thus: Test Example H: Anthracnose on cucumber. The settings on record: Anthracnose on cucumber; 250 ppm spray, 6 to 10 days after inoculation.
For experiment [7], the system named is Blumeria graminis f. sp. hordei. Briefly: Test Example D: Powdery mildew on barley. Conditions: Powdery mildew on barley; control value class.
Experiment [8] relates to Magnaporthe grisea. The experiment can be described thus: whole plant or invertebrate. It is filed as in vivo. Conditions: Blast on rice; control value class.

Molecules are shown by their SMILES.

On to `CCn1c(-c2ccc(O)cc2)c(CC(C)C)ccc1=O` [compound 193], for which, in experiment [1], the “Test F control value” is “L (50% or less control value)”. Further, in experiment [2], the “Test C control value” was “H (more than 50% control value)”. In addition, the “Test G control value” in experiment [3] is on record as “L (50% or less control value)”. In addition, the “Test E control value” in experiment [4] is “L (50% or less control value)”. Besides, the “Test B control value” in experiment [5] is on record as “L (50% or less control value)”. Besides, the “Test H control value” in experiment [6] is given as “L (50% or less control value)”. Also, the “Test D control value” in experiment [7] is “L (50% or less control value)”. In addition, the “Test A control value” in experiment [8] is listed as “L (50% or less control value)”.
For `CCn1c(-c2ccc(OC)cc2)c(CC(C)C)ccc1=O` [compound 194], in experiment [1], the “Test F control value” is reported as “L (50% or less control value)”. In experiment [2], the “Test C control value” is recorded as “L (50% or less control value)”. Further, in experiment [3], the “Test G control value” is “L (50% or less control value)”. Moreover, the “Test E control value” in experiment [4] is “H (more than 50% control value)”. Further, the “Test B control value” in experiment [5] was “H (more than 50% control value)”. For the same compound, in experiment [6], the “Test H control value” is “L (50% or less control value)”. Moreover, the “Test D control value” in experiment [7] was “H (more than 50% control value)”. The “Test A control value” in experiment [8] is given as “H (more than 50% control value)”.
In the case of `CCn1c(-c2ccc(OC)cc2)c(CC(C)C)cc(Cl)c1=O` [compound 195], the “Test F control value” in experiment [1] was “L (50% or less control value)”. Moreover, the “Test C control value” in experiment [2] was “H (more than 50% control value)”. For the same compound, the “Test G control value” in experiment [3] was “L (50% or less control value)”. Moreover, the “Test E control value” in experiment [4] is recorded as “H (more than 50% control value)”. The “Test B control value” in experiment [5] is reported as “H (more than 50% control value)”. For the same compound, the “Test H control value” in experiment [6] was “H (more than 50% control value)”. Moreover, the “Test D control value” in experiment [7] is “H (more than 50% control value)”. Also, the “Test A control value” in experiment [8] was “H (more than 50% control value)”.
On to `CCn1c(-c2ccc(OC)cc2)c(CC(C)C)cc(Br)c1=O` [compound 196], for which, in experiment [1], the “Test F control value” is on record as “L (50% or less control value)”. For the same compound, the “Test C control value” in experiment [2] is listed as “H (more than 50% control value)”. For the same compound, the “Test G control value” in experiment [3] is “L (50% or less control value)”. The “Test E control value” in experiment [4] is recorded as “H (more than 50% control value)”. In addition, the “Test B control value” in experiment [5] is reported as “H (more than 50% control value)”. Moreover, the “Test H control value” in experiment [6] is given as “H (more than 50% control value)”. In addition, the “Test D control value” in experiment [7] was “L (50% or less control value)”. For the same compound, the “Test A control value” in experiment [8] is on record as “H (more than 50% control value)”.
`C=C(c1cc(Cl)c(=O)n(CC)c1-c1c(F)cccc1F)C(C)C` [compound 197]: the “Test F control value” in experiment [1] is listed as “L (50% or less control value)”. Also, in experiment [2], the “Test C control value” is recorded as “H (more than 50% control value)”. Moreover, the “Test G control value” in experiment [3] was “H (more than 50% control value)”. For the same compound, the “Test E control value” in experiment [4] was “H (more than 50% control value)”. Further, in experiment [5], the “Test B control value” is on record as “H (more than 50% control value)”. In addition, the “Test H control value” in experiment [6] was “H (more than 50% control value)”. Besides, the “Test D control value” in experiment [7] is listed as “H (more than 50% control value)”. For the same compound, in experiment [8], the “Test A control value” is reported as “H (more than 50% control value)”.
With `CCn1c(-c2c(F)cccc2F)c(C(C)C(C)C)cc(Cl)c1=O` (stereo not drawn) [compound 198], in experiment [1], the “Test F control value” is on record as “L (50% or less control value)”. Further, in experiment [2], the “Test C control value” was “H (more than 50% control value)”. For the same compound, the “Test G control value” in experiment [3] was “L (50% or less control value)”. Further, in experiment [4], the “Test E control value” was “H (more than 50% control value)”. Moreover, the “Test B control value” in experiment [5] was “H (more than 50% control value)”. In addition, the “Test H control value” in experiment [6] is “H (more than 50% control value)”. Moreover, the “Test D control value” in experiment [7] is given as “H (more than 50% control value)”. Also, the “Test A control value” in experiment [8] is given as “H (more than 50% control value)”.

Values taken from patent US11147272B2, “Pyridone compounds and agricultural and horticultural fungicides comprising the same as active ingredients” (MITSUI CHEMICALS AGRO, INC., priority 2017, dated 2021).
